Reference: patent US9255295B2, “Method for evaluating the sensitizing potential of a test compound” (IMMUNOSEARCH, priority 2010, dated 2016)
Like-named read-outs stand apart in the source and are kept apart here.

Assays:
[1] = test system: ARE gene family (AKR1B10, AKR1C1, AKR1C2, CYP1B1, FTH1P, FTL, G6PD, GCLM, NQO2, SLC7A11, TXNRD1, UGT1A1, UGT1A9, YWHAZ, CD36, CYP1A1, GCLC, HMOX1, NQO1, PSME2 …); settings: for AHR expression / AKR1B10 expression / AKR1C1 expression / AKR1C2 expression / CYP1A1 expression / CYP1B1 expression / FTH1P expression / FTL expression / GCLC expression / GCLM expression / HMOX1 expression / NQO1 expression / NQO2 expression / SLC7A11 expression / TXNRD1 expression / UGT1A1 expression / UGT1A9 expression: compared to the control
EPISKIN model = test: Sensitizing power: sensitizing potential retested at successive dilutions in the EPISKIN model

## CC=Cc1ccc(O)c(OC)c1 [Isoeugenol]
[1]; 10%
  AKR1C1 NUMBER OF GENES grade: 0 (if this expression is lower, the grade is 0)
  AKR1C2 NUMBER OF GENES grade: 0 (if this expression is lower, the grade is 0)
  ARE >1.3 (number of genes): 5
  CD36 expression compared to control: 0.6
  CD36 grade (NUMBER OF GENES): 0 (if this expression is lower, the grade is 0)
  CYP1A1 NUMBER OF GENES grade: 1 (If the expression is greater than 1.3 compared to the control, a grade of 11s given)
  CYP1B1 NUMBER OF GENES grade: 1 (If the expression is greater than 1.3 compared to the control, a grade of 11s given)
  FTH1P NUMBER OF GENES grade: 0 (if this expression is lower, the grade is 0)
  FTL NUMBER OF GENES grade: 0 (if this expression is lower, the grade is 0)
  GCLC NUMBER OF GENES grade: 0 (if this expression is lower, the grade is 0)
  GCLM NUMBER OF GENES grade: 1 (If the expression is greater than 1.3 compared to the control, a grade of 11s given)
  HMOX1 NUMBER OF GENES grade: 0 (if this expression is lower, the grade is 0)
  NQO1 NUMBER OF GENES grade: 0 (if this expression is lower, the grade is 0)
  NQO2 NUMBER OF GENES grade: 0 (if this expression is lower, the grade is 0)
  S100A8 expression compared to control: 1.3
  S100A8 grade (NUMBER OF GENES): 1 (If the expression is greater than 1.3 compared to the control, a grade of 11s given)
  SLC7A11 NUMBER OF GENES grade: 0 (if this expression is lower, the grade is 0)
  TOTAL ARE (number of genes): 5
  TXNRD1 NUMBER OF GENES grade: 1 (If the expression is greater than 1.3 compared to the control, a grade of 11s given)
  UGT1A1 NUMBER OF GENES grade: 0 (if this expression is lower, the grade is 0)
  UGT1A9 NUMBER OF GENES grade: 1 (If the expression is greater than 1.3 compared to the control, a grade of 11s given)
  AHR expression: 0.9
  AKR1B10 expression: 0.5
  AKR1C1 expression: 1.1
  AKR1C2 expression: 0.7
  CYP1A1 expression: 510.5
  CYP1B1 expression: 39.8
  FTH1P expression: 0.9
  FTL expression: 0.9
  GCLC expression: 0.8
  GCLM expression: 1.5
  HMOX1 expression: 1.2
  NQO1 expression: 1.0
  NQO2 expression: 0.9
  SLC7A11 expression: 1.1
  TXNRD1 expression: 1.5
  UGT1A1 expression: 1.2
  UGT1A9 expression: 1.6
[1]; 50%
  AHR NUMBER OF GENES grade: 0 (if this expression is lower, the grade is 0)
  AKR1B10 NUMBER OF GENES grade: 0 (if this expression is lower, the grade is 0)
  AKR1C1 NUMBER OF GENES grade: 1 (If the expression is greater than 1.3 compared to the control, a grade of 11s given)
  AKR1C2 NUMBER OF GENES grade: 1 (If the expression is greater than 1.3 compared to the control, a grade of 11s given)
  ARE >1.3 (number of genes): 11
  CD36 expression compared to control: 0.6
  CD36 grade (NUMBER OF GENES): 0 (if this expression is lower, the grade is 0)
  CYP1A1 NUMBER OF GENES grade: 1 (If the expression is greater than 1.3 compared to the control, a grade of 11s given)
  CYP1B1 NUMBER OF GENES grade: 1 (If the expression is greater than 1.3 compared to the control, a grade of 11s given)
  FTH1P NUMBER OF GENES grade: 0 (if this expression is lower, the grade is 0)
  FTL NUMBER OF GENES grade: 1 (If the expression is greater than 1.3 compared to the control, a grade of 11s given)
  GCLC NUMBER OF GENES grade: 1 (If the expression is greater than 1.3 compared to the control, a grade of 11s given)
  GCLM NUMBER OF GENES grade: 1 (If the expression is greater than 1.3 compared to the control, a grade of 11s given)
  HMOX1 NUMBER OF GENES grade: 1 (If the expression is greater than 1.3 compared to the control, a grade of 11s given)
  NQO1 NUMBER OF GENES grade: 1 (If the expression is greater than 1.3 compared to the control, a grade of 11s given)
  NQO2 NUMBER OF GENES grade: 0 (if this expression is lower, the grade is 0)
  S100A8 expression compared to control: 1.5
  S100A8 grade (NUMBER OF GENES): 1 (If the expression is greater than 1.3 compared to the control, a grade of 11s given)
  SLC7A11 NUMBER OF GENES grade: 1 (If the expression is greater than 1.3 compared to the control, a grade of 11s given)
  TOTAL ARE (number of genes): 11
  TXNRD1 NUMBER OF GENES grade: 1 (If the expression is greater than 1.3 compared to the control, a grade of 11s given)
  UGT1A1 NUMBER OF GENES grade: 0 (if this expression is lower, the grade is 0)
  UGT1A9 NUMBER OF GENES grade: 0 (if this expression is lower, the grade is 0)
  AHR expression: 1.0
  AKR1B10 expression: 1.0
  AKR1C1 expression: 2.2
  AKR1C2 expression: 1.3
  CYP1A1 expression: 87.1
  CYP1B1 expression: 39.1
  FTH1P expression: 1.0
  FTL expression: 1.5
  GCLC expression: 1.3
  GCLM expression: 2.0
  HMOX1 expression: 1.4
  NQO1 expression: 1.8
  NQO2 expression: 1.1
  SLC7A11 expression: 2.2
  TXNRD1 expression: 2.6
  UGT1A1 expression: 1.2
  UGT1A9 expression: 1.2
EPISKIN model; 0.1%
  sensitizing potential (conclusion): Sensitizing
EPISKIN model; 1%
  sensitizing potential (conclusion): Sensitizing
EPISKIN model; 10%
  sensitizing potential (conclusion): Sensitizing
EPISKIN model; 50%
  sensitizing potential (conclusion): Sensitizing
EPISKIN model; from successive dilutions
  sensitizing power (class): MODERATE
